From patent US20200171022A1, “FLT3 INHIBITORS FOR IMPROVING PAIN TREATMENTS BY OPIOIDS” (INSERM (Institut National de la Santé et da la Recherche …, priority 2017, published 2020)

Legend:
Male Sprague-Dawley rats [1] = assay: Potentiation of morphine-induced analgesia and morphine-dose sparing, paw pressure test (Example 4); conditions: for pressure exerted on the hindpaw to obtain withdrawal: BDT001 1 mg/kg, morphine 1.5 mg/kg, mean±S.E.M., 6 animals, saline 250±7.4 g
Procedure: (§1) Paw pressure test: Mechanical hyperalgesia was measured as the threshold to a noxious mechanical stimulus. […] Briefly, a constantly increasing pressure is applied to the rat hind paw until vocalization occurs. A Basile analgesimeter (Bioseb, France; stylus tip diameter, 1 mm) was used. A 600-g cut-off value was determined to prevent tissue damage.
To evaluate the group effects of treatments, two-way ANOVA with repeated measurements were performed followed by Dunnett's post-hoc test. Newman-Keul's test was used for multiple comparisons between groups. A difference was accepted as significant if the probability that it occurred by chance alone was less than 5% (P<0.05).

Male Sprague-Dawley rats [2] = assay: Tolerance to morphine analgesia after chronic morphine treatment, paw pressure test (Example 5); assay type: in vivo, rat; conditions: morphine 2 mg/kg s.c. twice daily for 4 days, D0 to D4, control animals
Procedure: Rats were kept under controlled environmental conditions (22° C., 60% relative humidity, 12 h light/dark cycle with lights on at 7:00 A.M., food and water ad libitum). To limit the stress induced by the experimental procedure, the general plan for an experimental phase was as follows: • arrival and housing of the animals: 4 days; • acclimatization of the animals for 10 days to the experimental conditions in order to avoid any possibility of measurement bias being induced by stress; • evaluation of nociceptive threshold baseline • repeated opioid administration and evaluation of treatment effects
as §1
Intrathecal injection was performed via manual lumbar puncture over one minute under anesthesia (isoflurane).
Data are presented as mean±S.E.M. To evaluate the time-course effects of treatments and individual group comparisons, one-way and two-way ANOVA with repeated measurements were performed followed by Dunnett's post hoc test. Bonferroni's test was used for multiple comparisons between groups. […]

wild-type (Flt3+/+) mice = assay: Mechanical pain hypersensitivity after repeated morphine, von Frey test (Example 3); conditions: morphine 10 mg/kg twice a day for 4 days, compared to saline
Procedure: Experiments were performed in male mice carrying a homozygous deletion of Flt3 (F1t3KO mice)^24 and their littermates (WT) weighing 25-30 g. […] Animals were maintained in a climate-controlled room on a 12 h light/dark cycle and allowed access to food and water ad libitum. To limit the stress induced by the experimental procedure, the general plan for an experimental phase was as follows: • arrival and housing of the animals: 4 days; • evaluation of nociceptive threshold baseline; • repeated opioid administration and evaluation of treatment effects
Filaments were applied perpendicularly to the plantar surface of the paw. The 50% paw withdrawal threshold was determined in grams by the Dixon nonparametric test. The protocol was repeated until three changes in behavior occurred.
(§2) Data are presented as mean±S.E.M. To evaluate the time-course effects of treatments and individual group comparisons, one-way and two-way ANOVA with repeated measurements were performed followed by Dunnett's post hoc test. Bonferroni's test was used for multiple comparisons between groups. A difference was accepted as significant if the probability that it occurred by chance alone was less than 5% (P<0.05).

Male Sprague-Dawley rats [3] = assay: Morphine-induced mechanical pain hypersensitivity and latent pain sensitization, paw pressure test (Example 6); conditions: morphine 2 mg/kg twice daily for 4 days; observed on D2, back to baseline on D9
Procedure: Rats were kept under controlled environmental conditions (22° C., 60% relative humidity, 12 h light/dark cycle with lights on at 7:00 A.M., food and water ad libitum). To limit the stress induced by the experimental procedure, the general plan for an experimental phase was as follows: • arrival and housing of the animals: 4 days; • acclimation of the animals for 10 days to the experimental conditions in order to avoid any possibility of measurement bias being induced by stress; • evaluation of nociceptive threshold baseline • repeated opioid administration and evaluation of treatment effects
Mechanical hyperalgesia was measured as the threshold to a noxious mechanical stimulus. […] Briefly, a constantly increasing pressure is applied to the rat hind paw until vocalization occurs. A Basile analgesimeter (Bioseb, France; stylus tip diameter, 1 mm) was used. A 600-g cut-off value was determined to prevent tissue damage.
as §2

Compound | pressure exerted on the hindpaw to obtain withdrawal (Male Sprague-Dawley rats [1]; 30 min after administration) | morphine-dose sparing effect (Male Sprague-Dawley rats [1]; BDT001 1 mg/kg i.p.) | analgesia by itself (Male Sprague-Dawley rats [1]; BDT001 1 mg/kg i.p. alone, 30 min after administration) | morphine-induced analgesia (percentage of MPE) on repeated morphine administration (Male Sprague-Dawley rats [2]) | nociceptive threshold (mechanical pain hypersensitivity) after repeated morphine (wild-type (Flt3+/+) mice) | morphine-induced analgesia (area under the curve) (Male Sprague-Dawley rats [1]; morphine 0.5, 1, 1.5 or 2 mg/kg s.c. alone) | nociceptive threshold (pain hypersensitivity) in morphine-treated animals (Male Sprague-Dawley rats [3])
O=C(Nc1cc(Cl)ccc1O)c1cccc(S(=O)(=O)N2CCCCC2)c1 [BDT001, N-(5-chloro-2-hydroxyphenyl)-3-(piperidin-1-ylsulfonyl)benzamide] | 252.5 ± 9.0 g | 30% | did not produced analgesia by itself | – | – | – | –
CN1CC[C@]23c4c5ccc(O)c4O[C@H]2[C@@H](O)C=C[C@H]3[C@H]1C5 [morphine] | 502.5 ± 20.0 g | – | – | induced a progressive decrease in morphine-induced analgesia | induced a decrease in the nociceptive threshold | induced analgesia in a dose-dependent manner | significant decrease in the nociceptive threshold
